In ChEMBL document CHEMBL1142691, “Solid-phase total synthesis of kahalalide A and related analogues” (2005):
Converted amounts (≈) assume the structure as drawn.

Legend:
[1] = tested on: Mycobacterium tuberculosis; experiment: Minimum inhibitory concentration against Mycobacterium tuberculosis; format: functional
[2] = tested on: Mycobacterium tuberculosis; experiment: Concentration to inhibit of the growth of Mycobacterium tuberculosis at 12.5 ug/ml; format: functional

Row | Compound | MIC [1] | inhibition at 12.5 µg/mL [2]
1 | CCC(C)C(=O)N[C@H](Cc1ccccc1)C(=O)N[C@@H]1C(=O)N[C@H](CC(C)C)C(=O)N[C@H](Cc2ccccc2)C(=O)N[C@H](CC(C)C)C(=O)N[C@@H]([C@@H](C)O)C(=O)N[C@@H](CO)C(=O)O[C@@H]1C (some centres undefined) | 64 µg/mL (≈ 71.6 µM) | 83%
2 | CCCCCC(=O)N[C@H](Cc1ccccc1)C(=O)N[C@@H]1C(=O)N[C@H](CC(C)C)C(=O)N[C@H](Cc2ccccc2)C(=O)N[C@H](CC(C)C)C(=O)N[C@@H]([C@@H](C)O)C(=O)N[C@@H](CO)C(=O)O[C@@H]1C | 32 µg/mL (≈ 35.2 µM) | 
3 | CC[C@H](C)C(=O)N[C@H](Cc1ccccc1)C(=O)N[C@@H]1C(=O)N[C@H](CC(C)C)C(=O)N[C@H](Cc2ccccc2)C(=O)N[C@H](CC(C)C)C(=O)N[C@@H]([C@@H](C)O)C(=O)N[C@@H](CO)C(=O)O[C@@H]1C | 64 µg/mL (≈ 71.6 µM) | 
